Assay results as given in patent US6486167B1, “Heterocyclic cytotoxic agents” (Rutgers, The State University of New Jersey, priority 1997, dated 2002).
Read-outs that look alike come from different tables or passages of the source.

Assays:
human topoisomerase I = biological target: T1, human topoisomerase I (Homo sapiens, UniProt P11387); experiment: Topoisomerase I-mediated DNA cleavage assay (Test A); format: biochemical; settings: for Topo I-mediated DNA cleavage (REC, Relative Effective Concentration): concentration relative to camptothecin (CPT = 1) producing the same cleavage on plasmid DNA, human topoisomerase I; for topoisomerase I poisoning activity (in words): qualitative statement
T1 construct: made in house
T1 sequence (P11387 1-765): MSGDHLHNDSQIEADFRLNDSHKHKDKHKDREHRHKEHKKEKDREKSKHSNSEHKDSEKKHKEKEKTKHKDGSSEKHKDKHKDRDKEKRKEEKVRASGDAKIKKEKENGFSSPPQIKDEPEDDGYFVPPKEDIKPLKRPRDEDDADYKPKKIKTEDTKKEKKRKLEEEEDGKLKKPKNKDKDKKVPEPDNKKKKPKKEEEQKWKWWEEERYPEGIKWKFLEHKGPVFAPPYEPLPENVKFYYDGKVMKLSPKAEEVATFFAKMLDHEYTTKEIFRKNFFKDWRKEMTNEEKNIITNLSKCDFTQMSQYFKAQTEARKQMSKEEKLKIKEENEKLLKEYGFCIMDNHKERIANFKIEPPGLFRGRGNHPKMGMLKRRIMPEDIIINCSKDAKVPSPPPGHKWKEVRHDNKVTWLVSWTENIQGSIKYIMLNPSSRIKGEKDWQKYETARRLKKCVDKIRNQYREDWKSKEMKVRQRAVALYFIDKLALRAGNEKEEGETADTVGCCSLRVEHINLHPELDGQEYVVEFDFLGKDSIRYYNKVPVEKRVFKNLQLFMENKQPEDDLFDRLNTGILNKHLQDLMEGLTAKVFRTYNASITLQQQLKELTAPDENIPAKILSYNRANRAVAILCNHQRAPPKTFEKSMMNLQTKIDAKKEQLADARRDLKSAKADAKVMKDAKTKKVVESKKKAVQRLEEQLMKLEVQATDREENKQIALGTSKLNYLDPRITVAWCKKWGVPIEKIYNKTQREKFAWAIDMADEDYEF
Procedure: (§1) Topoisomerase I and Topoisomerase II Cleavage Assay
(§2) Representative compounds of the invention were evaluated in cleavage assays for the recombinant topoisomerases I and calf thymus topoisomerases I and II. These assays were preformed as described by B. Gatto et al. Cancer Res., 1996, 56, 2795-2800. Human topoisomerase I was isolated as a recombinant fusion protein using a T7 expression system. DNA topoisomerase II was purified from calf thymus gland as reported by Halligan, B. D.; Edwards, K. A.; Liu, L. F. “Purification and characterization of a type II DNA topoisomerase from bovine calf thymus,” J. Biol. Chem. 1985, 260, 2475. Plasmid YEpG was purified by the alkali lysis method followed by phenol deproteination and CsCl/ethidium isopycnic centrifugation as described by Maniatis, T.; Fritsch, E. F.; Sambrook, J. Molecular Cloning, a Laboratory Manual; Cold Spring Harbor Laboratory: Cold Spring Harbor, N.Y. 1982; pp 149-185. The end-labeling of the plasmid was accomplished by digestion with a restriction enzyme followed by end-filling with Klenow polymerase as previously described by Liu, L. F.; Rowe, T. C.; Yang, L.; Tewey, K. M.; Chen, G. L. “Cleavage of DNA by mammalian topoisomerase II,” J. Biol. Chem. 1983, 258, 15365.

[1] = test system: calf thymus topoisomerase II; experiment: Topoisomerase II-mediated DNA cleavage assay (Test A); format: biochemical; settings: concentration relative to VM-26 (= 1) producing the same cleavage on plasmid DNA
Procedure: as §1, §2

[2] = test system: human lymphoblast RPMI 8402; experiment: MTT-microtiter plate tetrazolinium cytotoxicity assay (Test B), RPMI 8402; format: cell-based; settings: read-out: Cytotoxicity IC50 RPMI
Procedure: (§3) The cytotoxicity was determined using the MTT-microtiter plate tetrazolinium cytotoxicity assay (MTA) (See Chen A. Y. et al. Cancer Res. 1993, 53, 1332; Mosmann, T. J., J. Immunol. Methods 1983, 65, 55; and Carmichael, J. et al. Cancer Res. 1987, 47, 936).

[3] = test system: camptothecin-resistant variant cell line, CPT-K5; experiment: MTT-microtiter plate tetrazolinium cytotoxicity assay (Test B), CPT-K5; format: cell-based, human; settings: read-out: Cytotoxicity IC50 CPT-K5
Procedure: as §3

[4] = Homo sapiens, 96 h, CPT-K5 camptothecin-resistant cells, 4 days of continuous drug exposure

Compound | melting point | Topo I-mediated DNA cleavage (REC, Relative Effective Concentration) (human topoisomerase I) | topoisomerase I poisoning activity (in words) (human topoisomerase I) | Topo II-mediated DNA cleavage (REC, Relative Effective Concentration) [1] | IC50 ([2]; Homo sapiens, RPMI 8402, 96 h) | IC50 ([3]; Homo sapiens, CPT-K5, 96 h) | IC50 ([2]; Homo sapiens, 96 h, RPMI 8402 cells, 4 days of continuous drug exposure) | IC50 [3, 4] | IC50 ([2]; RPMI 8402 cells, 4 days of continuous drug exposure) | IC50 ([3]; CPT-K5 camptothecin-resistant cells, 4 days of continuous drug exposure)
COc1ccc2c(c1)ncc1c3cc(OC)c(OC)cc3ccc21 [Example 9, 2,3,8-Trimethoxybenzo[i]phenanthridine] | 200 to 202 °C | – | – | – | – | – | – | – | – | –
COc1cc2nc(C)c3c4cc5c(cc4ccc3c2cc1OC)OCO5 [Compound 7, 8,9-Dimethoxy-5-methyl-2,3-methylenedioxybenzo[i]-phenanthridine] | > 250 °C | 200 | potent activity | 100 | 10.1 µM | 14.4 µM | – | – | – | –
COc1cc2ccc3c4cc(OC)c(OC)cc4ncc3c2cc1OC [Compound 4, 2,3,8,9-Tetramethoxybenzo[i]phenanthridine] | 267 to 268 °C | >1000 | significantly less topoisomerase I poisioning activity | >1000 | 22.9 µM | 22.9 µM | – | – | – | –
COc1cc2ccc3c4cc(N)ccc4ncc3c2cc1OC [Compound 31, 2,3-Dimethoxy-9-aminobenzo[i]phenanthridine] | – | 50 | – | >1000 | 3 µM | 3 µM | – | – | – | –
CC[C@@]1(O)C(=O)OCc2c1cc1n(c2=O)Cc2cc3ccccc3nc2-1 [CPT, camptothecin, reference compound] | – | 1 | – | >1000 | – | – | 0.004 µM | > 10 µM | – | –
COc1cc2ccc3c4cc5c(cc4ncc3c2cc1OC)OCO5 [Compound 28, 2,3-Dimethoxy-8,9-methylenedioxybenzo[i]phenanthridine] | 171 °C | 25 | potent topoisomerase poisioning activity | >1000 | 0.2 µM | 0.2 µM | – | – | – | –
2,3,8,9-Dimethylenedioxybenzo[i]phenanthridine [Compound 29] | – | 100 | – | >1000 | – | – | – | – | – | –
COc1cc([C@@H]2c3cc4c(cc3[C@@H](O[C@@H]3O[C@@H]5CO[C@@H](c6cccs6)O[C@H]5[C@H](O)[C@H]3O)[C@H]3COC(=O)[C@H]23)OCO4)cc(OC)c1O [VM-26, teniposide, reference compound] | – | >1000 | – | 1 | – | – | – | – | 0.3 µM | 0.5 µM
COc1cc2c[n+](C)c3c4cc5c(cc4ccc3c2cc1OC)OCO5 [Nitidine, reference compound] | – | 1 | – | 1 | 0.65 µM | – | – | > 2.6 µM | – | –
COc1cc2ncc3c4cc5c(cc4ccc3c2cc1OC)OCO5 [Compound 6, 2,3-Methylenedioxy-8,9-dimethoxybenzo[i]phenanthridine] | > 250 °C | 100 | potent activity | 10 | 7.5 µM | 7 µM | – | – | – | –
COc1cc2ccc3c4cc(OCc5ccccc5)ccc4ncc3c2cc1OC [Compound 30, 2,3-Dimethoxy-9-benzyloxybenzo[i]phenanthridine] | – | 250 | – | >1000 | 7.5 µM | 7.5 µM | – | – | – | –
COc1cc2ccc3c4cc(OC)c(OC)cc4nc(C)c3c2cc1OC [Compound 5, 5-Methyl-2,3,8,9-tetramethoxybenzo[i]phenanthridine] | 255 to 257 °C | >1000 | significantly less topoisomerase I poisioning activity | >1000 | 27.5 µM | > 27.5 µM | – | – | – | –
